Experimental data: PMC12649549, “Sequence Permutation Generated Lysine and Tryptophan-Rich Antimicrobial Peptides with Enhanced Therapeutic Index” (Antibiotics, 2025)
Like-named read-outs stand apart in the source and are kept apart here.

Assays:
S. aureus ATCC 33592 = system: S. aureus ATCC 33592
Procedure: (§1) The antibacterial and salt-resistant activity of the peptides was tested using Escherichia coli (ATCC 25922), Pseudomonas aeruginosa Migula (ATCC 27853), Acinetobacter sp. (BCRC number 14B0091, BCRC number 14B0097, and BCRC number 14B0100), and Staphylococcus aureus sp. strains (ATCC 25923, ATCC 33591, ATCC 33592, ATCC 33593, and ATCC 6538). All bacteria were obtained from the Food Industry Research and Development Institute (Hsinchu, Taiwan) and cultured in sterilized Müller-Hinton (MH) broth at 37 °C and 200 rpm for 8 h. The inoculum concentrations were determined by measuring the optical density at 600 nm (OD 600 = 1, approximately 10^8 CFU/mL) using an Ultrospec 2100 pro UV-Visible spectrophotometer (Biochrom Ltd., Cambridge, UK) after 8 h of culture.
The antibacterial activities of the peptides in Müller-Hinton (MH) broth and modified LYM broth were determined using the standard broth microdilution method as per Clinical and Laboratory Standards Institute (CLSI) guidelines. The LYM broth was prepared with specific components and adjusted to different conditions, including varying concentrations of NaCl and MgCl2, and different pH levels. To prepare the LYM broth, 5.4 mM KCl, 5.6 mM Na2HPO4, 0.5 mM MgSO4, and 1.0 mM sodium citrate were added. Additionally, 0.4 mg of ZnCl2, 2.0 mg of FeCl3·6H2O, 0.1 mg of CuSO4·5H2O, 0.1 mg of MnSO4·H2O, 0.1 mg of Na2B4O7∙10H2O, 700 mg of amino acid mixtures without tryptophan (Takara Bio Inc., San Jose, CA, USA), and 20 mg of L-tryptophan were added per liter of medium. The pH was adjusted to 7.4, and a vitamin mixture (100X, Sigma) and glucose concentration of 2% were added. […] Bacterial strains were incubated in MH broth overnight, regrown, and diluted to a final concentration of 5 × 10^5 CFU/mL. Peptides were added to each well at final concentrations of 50, 25, 12.5, 6.25, 3.13, 1.56, and 0.78 µg/mL, and 99 µL of diluted microbes was loaded into each well of a polypropylene 96-well plate. […] The Morpheus HeatMap software (https://software.broadinstitute.org/morpheus/) was used to display MIC values on a color scale. All experiments were independently repeated three times.

S. aureus ATCC 6538 = system: S. aureus ATCC 6538
Procedure: as §1
(§2) The antibacterial activities of the peptides in Müller-Hinton (MH) broth and modified LYM broth were determined using the standard broth microdilution method as per Clinical and Laboratory Standards Institute (CLSI) guidelines. The LYM broth was prepared with specific components and adjusted to different conditions, including varying concentrations of NaCl and MgCl2, and different pH levels. To prepare the LYM broth, 5.4 mM KCl, 5.6 mM Na2HPO4, 0.5 mM MgSO4, and 1.0 mM sodium citrate were added. Additionally, 0.4 mg of ZnCl2, 2.0 mg of FeCl3·6H2O, 0.1 mg of CuSO4·5H2O, 0.1 mg of MnSO4·H2O, 0.1 mg of Na2B4O7∙10H2O, 700 mg of amino acid mixtures without tryptophan (Takara Bio Inc., San Jose, CA, USA), and 20 mg of L-tryptophan were added per liter of medium. The pH was adjusted to 7.4, and a vitamin mixture (100X, Sigma) and glucose concentration of 2% were added. For different conditions of LYM broth, NaCl concentrations of 300, 200, 150, and 50 mM, MgCl2 concentrations of 2.5, 1.5, and 0.5 mM, and pH levels of 6.5, 5.5, and 4.5 were adjusted. Bacterial strains were incubated in MH broth overnight, regrown, and diluted to a final concentration of 5 × 10^5 CFU/mL. Peptides were added to each well at final concentrations of 50, 25, 12.5, 6.25, 3.13, 1.56, and 0.78 µg/mL, and 99 µL of diluted microbes was loaded into each well of a polypropylene 96-well plate. […] The Morpheus HeatMap software (https://software.broadinstitute.org/morpheus/) was used to display MIC values on a color scale. All experiments were independently repeated three times.

[1] = system: A. baumannii 14B0097 (Acinetobacter sp., BCRC number 14B0097)
Procedure: as §1, §2

S. aureus ATCC 25923 = system: S. aureus ATCC 25923
Procedure: as §1, §2

Gram-positive bacteria = experiment: Geometric mean MIC and therapeutic index, Gram-positive bacteria; type: cell-based; conditions: Gram-positive bacteria; for GM G+ (geometric mean of the MIC values): MH broth, MIC >50 µg/mL counted as 100 µg/mL; for Therapeutic Index (TI) G+: HC10/GM
Procedure: In this study, we aimed to investigate the potential of W5K series peptides for therapeutic use. To evaluate their efficacy for antibacterial therapy, we used the Therapeutic Index (TI) as a measure of their cell selectivity. The TI was calculated as the ratio of the concentration causing 10% hemolysis of human red blood cells (HC10) to the geometric mean minimum inhibitory concentration (GM) of the peptides against both Gram-negative and Gram-positive bacteria. This parameter was used to quantitatively assess the balance between antibacterial potency and cytotoxicity among the W5K derivatives.
as §2

[2] = LYM broth, 0 mM NaCl, 16 h, 37 °C
[3] = LYM broth, 50 mM NaCl, 16 h, 37 °C
[4] = LYM broth, 100 mM NaCl, 16 h, 37 °C
[5] = LYM broth, 200 mM (NaCl), 16 h, 37 °C
[6] = LYM broth, 300 mM (NaCl), 16 h, 37 °C
[7] = MH broth, 5 × 10^5 CFU/mL, 16 h, 37 °C, repeated three times

Ac-KKWRKWLKWLAKK-NH2 [W5K/A9W]
MIC (S. aureus ATCC 33592; [2]): 3.13 µg/mL | MIC (S. aureus ATCC 33592; LYM broth, 0.5 mM MgCl2): 3.13 µg/mL | MIC (S. aureus ATCC 33592; LYM broth, 1.5 mM MgCl2): 3.13 µg/mL | MIC (S. aureus ATCC 33592; LYM broth, 2.5 mM MgCl2): 3.13 µg/mL | MIC (S. aureus ATCC 33592; [3]): 3.13 µg/mL | MIC (S. aureus ATCC 33592; [4]): 3.13 µg/mL | MIC (S. aureus ATCC 33592; [5]): 6.25 µg/mL | MIC (S. aureus ATCC 33592; [6]): 12.5 µg/mL | MIC (S. aureus ATCC 33592; LYM broth, pH 4.5): 3.13 µg/mL | MIC (S. aureus ATCC 33592; LYM broth, pH 5.5): 3.13 µg/mL | MIC (S. aureus ATCC 33592; LYM broth, pH 6.5): 3.13 µg/mL | MIC (S. aureus ATCC 33592; [7]): 12.5 µg/mL | MIC (S. aureus ATCC 6538; [2]): 1.56 µg/mL | MIC (S. aureus ATCC 6538; LYM broth, 0.5 mM MgCl2): 1.56 µg/mL | MIC (S. aureus ATCC 6538; LYM broth, 1.5 mM MgCl2): 1.56 µg/mL | MIC (S. aureus ATCC 6538; LYM broth, 2.5 mM MgCl2): 1.56 µg/mL | MIC (S. aureus ATCC 6538; [3]): 1.56 µg/mL | MIC (S. aureus ATCC 6538; [4]): 1.56 µg/mL | MIC (S. aureus ATCC 6538; [5]): 3.13 µg/mL | MIC (S. aureus ATCC 6538; [6]): 6.25 µg/mL | MIC (S. aureus ATCC 6538; LYM broth, pH 4.5): 3.13 µg/mL | MIC (S. aureus ATCC 6538; LYM broth, pH 5.5): 1.56 µg/mL | MIC (S. aureus ATCC 6538; LYM broth, pH 6.5): 1.56 µg/mL | MIC (S. aureus ATCC 6538; [7]): 6.25 µg/mL | MIC [1, 2]: 1.56 µg/mL | MIC ([1]; LYM broth, 0.5 mM MgCl2): 1.56 µg/mL | MIC ([1]; LYM broth, 1.5 mM MgCl2): 1.56 µg/mL | MIC ([1]; LYM broth, 2.5 mM MgCl2): 1.56 µg/mL | MIC [1, 3]: 1.56 µg/mL | MIC [1, 4]: 1.56 µg/mL | MIC [1, 5]: 1.56 µg/mL | MIC [1, 6]: 1.56 µg/mL | MIC ([1]; LYM broth, pH 4.5): 1.56 µg/mL | MIC ([1]; LYM broth, pH 5.5): 1.56 µg/mL | MIC ([1]; LYM broth, pH 6.5): 1.56 µg/mL | MIC [1, 7]: 1.56 µg/mL | MIC (S. aureus ATCC 25923; [2]): 1.56 µg/mL | MIC (S. aureus ATCC 25923; LYM broth, 0.5 mM MgCl2): 1.56 µg/mL | MIC (S. aureus ATCC 25923; LYM broth, 1.5 mM MgCl2): 3.13 µg/mL | MIC (S. aureus ATCC 25923; LYM broth, 2.5 mM MgCl2): 3.13 µg/mL | MIC (S. aureus ATCC 25923; [3]): 1.56 µg/mL | MIC (S. aureus ATCC 25923; [4]): 3.13 µg/mL | MIC (S. aureus ATCC 25923; [5]): 3.13 µg/mL | MIC (S. aureus ATCC 25923; [6]): 6.25 µg/mL | MIC (S. aureus ATCC 25923; LYM broth, pH 4.5): 3.13 µg/mL | MIC (S. aureus ATCC 25923; LYM broth, pH 5.5): 1.56 µg/mL | MIC (S. aureus ATCC 25923; LYM broth, pH 6.5): 1.56 µg/mL | MIC (S. aureus ATCC 25923; [7]): 3.13 µg/mL | GM G+ (geometric mean of the MIC values) (Gram-positive bacteria): 8.2 µg/mL | Therapeutic Index (TI) G+ (Gram-positive bacteria): 3.6

Ac-KWLAKKKKWRKWL-NH2 [Peptide W5K07]
MIC (S. aureus ATCC 33592; [2]): 25 µg/mL | MIC (S. aureus ATCC 33592; LYM broth, 0.5 mM MgCl2): 25 µg/mL | MIC (S. aureus ATCC 33592; LYM broth, 1.5 mM MgCl2): 25 µg/mL | MIC (S. aureus ATCC 33592; LYM broth, 2.5 mM MgCl2): 25 µg/mL | MIC (S. aureus ATCC 33592; [3]): 25 µg/mL | MIC (S. aureus ATCC 33592; [4]): 50 µg/mL | MIC (S. aureus ATCC 33592; [5]): >50 µg/mL | MIC (S. aureus ATCC 33592; [6]): >50 µg/mL | MIC (S. aureus ATCC 33592; LYM broth, pH 4.5): 25 µg/mL | MIC (S. aureus ATCC 33592; LYM broth, pH 5.5): 25 µg/mL | MIC (S. aureus ATCC 33592; LYM broth, pH 6.5): 12.5 µg/mL | MIC (S. aureus ATCC 33592; [7]): >50 µg/mL | MIC (S. aureus ATCC 6538; [2]): 6.25 µg/mL | MIC (S. aureus ATCC 6538; LYM broth, 0.5 mM MgCl2): 3.13 µg/mL | MIC (S. aureus ATCC 6538; LYM broth, 1.5 mM MgCl2): 6.25 µg/mL | MIC (S. aureus ATCC 6538; LYM broth, 2.5 mM MgCl2): 6.25 µg/mL | MIC (S. aureus ATCC 6538; [3]): 12.5 µg/mL | MIC (S. aureus ATCC 6538; [4]): 12.5 µg/mL | MIC (S. aureus ATCC 6538; [5]): 50 µg/mL | MIC (S. aureus ATCC 6538; [6]): >50 µg/mL | MIC (S. aureus ATCC 6538; LYM broth, pH 4.5): 6.25 µg/mL | MIC (S. aureus ATCC 6538; LYM broth, pH 5.5): 6.25 µg/mL | MIC (S. aureus ATCC 6538; LYM broth, pH 6.5): 3.13 µg/mL | MIC (S. aureus ATCC 6538; [7]): >50 µg/mL | MIC [1, 2]: 3.13 µg/mL | MIC ([1]; LYM broth, 0.5 mM MgCl2): 3.13 µg/mL | MIC ([1]; LYM broth, 1.5 mM MgCl2): 3.13 µg/mL | MIC ([1]; LYM broth, 2.5 mM MgCl2): 3.13 µg/mL | MIC [1, 3]: 6.25 µg/mL | MIC [1, 4]: 12.5 µg/mL | MIC [1, 5]: 50 µg/mL | MIC [1, 6]: >50 µg/mL | MIC ([1]; LYM broth, pH 4.5): 3.13 µg/mL | MIC ([1]; LYM broth, pH 5.5): 3.13 µg/mL | MIC ([1]; LYM broth, pH 6.5): 3.13 µg/mL | MIC [1, 7]: 12.5 µg/mL | MIC (S. aureus ATCC 25923; [2]): 6.25 µg/mL | MIC (S. aureus ATCC 25923; LYM broth, 0.5 mM MgCl2): 6.25 µg/mL | MIC (S. aureus ATCC 25923; LYM broth, 1.5 mM MgCl2): 12.5 µg/mL | MIC (S. aureus ATCC 25923; LYM broth, 2.5 mM MgCl2): 12.5 µg/mL | MIC (S. aureus ATCC 25923; [3]): 12.5 µg/mL | MIC (S. aureus ATCC 25923; [4]): 25 µg/mL | MIC (S. aureus ATCC 25923; [5]): 50 µg/mL | MIC (S. aureus ATCC 25923; [6]): >50 µg/mL | MIC (S. aureus ATCC 25923; LYM broth, pH 4.5): 12.5 µg/mL | MIC (S. aureus ATCC 25923; LYM broth, pH 5.5): 6.25 µg/mL | MIC (S. aureus ATCC 25923; LYM broth, pH 6.5): 3.13 µg/mL | MIC (S. aureus ATCC 25923; [7]): 50 µg/mL | GM G+ (geometric mean of the MIC values) (Gram-positive bacteria): 87.1 µg/mL | Therapeutic Index (TI) G+ (Gram-positive bacteria): 1.2
